Measured values as given in US20160346389A1, “MODIFIED PARAMAGNETIC NANOPARTICLES FOR TARGETED DELIVERY OF THERAPEUTICS AND METHODS THEREOF” (ALBERT EINSTEIN COLLEGE OF MEDICINE INC., priority 2013, published 2016).

Columns and labels:
[1] = Radiation protection by localized melanin; assay type: in vivo, rat; conditions: earlier studies
Source text: The same protocol used for curcumin also works for melanin resulting in melanin loaded OA-PMNPs. These particles have potential use as radioprotectants. The melanin loaded OA-PMNPs would be infused into the patient and then magnetically localized in healthy tissue surrounding the diseased tissue targeted for radiation treatment. […] Additionally melanin loaded PMNP can be used as targeted contrast agent for photo-acoustic based imaging.

[2] = system: U87 human glioblastoma cells; test: Cell viability assay, Presto Blue, 48 h; assay type: cell-based
Experimental: FIG. 22 Cytotoxicity of naked curcumin, curcumin conjugated PMNPs and Sol-Gel Nps and blanks (without curcumin) performed on U87 human glioblastoma cells after 48 hours of incubation. Note that 1 μM equivalent curcumin concentration corresponds to 16.7 μg/mL of nanoparticles. […] The data represents the mean±SE, n=3 to 18.
Cells were plated in 24-well trays and allowed to become confluent then incubated with naked curcumin or different curcumin NP concentrations for 48 h. Cell viability was quantified using Presto Blue (Invitrogen) an assay that contains a cell permeable resazurin-based solution that is modified by the reducing environment of the viable cell becoming highly fluorescent. Using a plate reader, cell viability was quantified after 0.5-1 hours of incubation with Presto Blue. All measurements were always accompanied by control wells and by calibration wells to account for background fluorescence using the same culture media and the same NP concentrations without the cells.

[3] = system: MoB-1833 mammary xenografted tumor; test: ADM-PMNP plus magnetic field on xenografted human breast cancer, bioluminescence; assay type: in vivo, mouse; conditions: comparable amount of free drug
Experimental: FIG. 8 Anti-tumor effect of IV infused Adriamycin loaded PMNP (ADM-PMNP) plus magnetic field treatment on xenografted human breast cancer. Human breast cancer was s.c. xenografted in a female nude mouse. The mouse was injected with 1 mg/kg ADM-PMNP and the tumor was treated with magnetic field for 30 minutes following each injection The mouse was imaged before and after the treatment, the luminescent signals were quantitatively analyzed for change of tumor size. At the end of the treatment, there was a >80% decrease of luminescent signaling in the tumor. The signal recovered partially 3 days after the treatment was ended.
Signal intensity in treated tumor was similar to that in bladder, a major route of PMNP elimination. Next, to assess drug delivery and anti-tumor efficacy, MoB-1833 mammary xenografted tumor-bearing mice were infused with ADM-coated PMNP (ADM-PMNP). ADM use in chemotherapy is limited due to systemic toxicity and it is therefore an excellent model drug for evaluation of the potentially utility of our PMNP platform. […] This ADM dose is 5-20 times lower than doses of free ADM commonly used for in animal studies and similar to doses used clinically. The 4-day treatment achieved a 9-fold reduction in tumor mass (FIG. 8). Tumor rebound upon drug termination confirmed specificity of the drug effect. […] The necrosis was confirmed histologically (FIG. 9Bd-f). […]

[4] = Histopathological analysis of multiple tissues (toxicity); assay type: in vivo, mice; conditions: same dose (1 mg/kg BW)
Experimental: FIGS. 11(A-B). Systemic effect of the treatment. (A) Representative H&E staining of tissue sections from ADM-PMNP injected mice (1 mg/kg BW)(A). (B) inflammation and hyperplasia were found in colon from mice treated with free ADM (B-left) but not in mice injected with the same dose of ADM-PMNP (B-right).

[5] = system: human breast cancer line, MDA-MB-436; test: Tumor necrosis in xenografted human breast cancer; assay type: in vivo, mice; conditions: 1.0 mg/kg
[6] = system: human breast cancer xenographs; test: MRI of magnetic field induced localization of PMNPs in breast cancer xenograft mice; assay type: in vivo, mouse
Experimental: FIGS. 3(A-D). […] By applying a magnet field for 30 minutes at hind end (blue arrows), the enhanced image of hind-end tumor is observed (3B). The enhanced image of the tumor persists for at least several hours. […] The PMNPs are concentrated at site of a lower abdominal mammary tumor (FIG. 3C) using an external magnetic field placed over the tumor for 30 minutes. […] Imaging was performed over several hours without taking the mouse out of MRI machine thereby maintaining all of the imaging parameters.
FIGS. 4(A-B). Compares the MRI contrast data between […] and gadolinium oxide-based PMNPs.
In FIG. 3 are presented results on magnetic immobilization of gadolinium-based PMNPs in a mouse with numerous human breast cancer xenographs. There is no image enhancement for any of the multiple tumors located in different parts of the mouse including one at hind end (green-arrow at bottom of the picture marked tumor). The mouse was then removed and then subjected to thirty minutes of having a magnetic field placed over the tumor demarked by the green arrow. […] The intensity of MRI signal is very similar at both tumor and bladder. This is very different than observed in case of […] where there is a transient image of the bladder and no site specific localization of the contrast agent in any one of the tumors. […]

melanin
radiation damage in irradiated legs [1]: prevent radiation damage

COc1cc(/C=C/C(=O)CC(=O)/C=C/c2ccc(O)c(OC)c2)ccc1O [Curcumin]
equivalent Curcumin concentration that decreases cell viability by 20% [2]: 5 µM

COc1cccc2c1C(=O)c1c(O)c3c(c(O)c1C2=O)C[C@@](O)(C(=O)CO)C[C@@H]3O[C@H]1C[C@H](N)[C@H](O)[C@H](C)O1 [Adriamycin, doxorubicin]
anti-tumor effect [3]: relatively ineffective
colon histology [4]: colonic inflammation and hyperplasia
tumor necrosis [5]: smaller necrotic lesions

CNC[C@H](O)[C@@H](O)[C@H](O)[C@H](O)CO.CNC[C@H](O)[C@@H](O)[C@H](O)[C@H](O)CO.O=C([O-])CN(CCN(CC(=O)[O-])CC(=O)O)CCN(CC(=O)[O-])CC(=O)O.[Gd+3]
persistence of MRI contrast ([6]; FIG. 4): short lived
distribution of contrast agent by MRI ([6]; within a short time, no magnetic field): concentrates in the bladder
